Measured values: patent publication US6106844A, “Immunomodulatory peptides of vespid antigen 5” (The Rockfeller University, priority 1998, dated 2000)

Columns and labels:
Format in all cases: cell-based
[1] = system: r-Ag5 specific spleen cells from C57B1/6 mice; assay: In vitro proliferation assay, spleen cells of r-Ag5-immunized C57B1/6 mice; settings: spleen cells from mice immunized 5 times with rAg5; blank 1050 cpm
Experimental: FIG. 14. Stimulation index profile of CS7B1/6 mice spleens after 5 immunizations with r-Ag5. In vitro proliferation assays were performed with peptides at three concentrations: 1×10^-5 M (open bar), 1.25×10^-6 M ("uphill" hatch), and 1.56×10 ^-7 M ("downhill" hatch). The corresponding concentrations of recombinant Antigen 5 were 1.0×10^-6 M, 1.25×10^-7, and 1.56×10^-8 M. The blank was 1050 cpm.
(§1) The peptides of the invention can be tested in a proliferation assay for T cell responses. Generally, lymphocytes from a sensitized host are obtained. The host can be a mouse that has been immunized with a vespid venom antigen 5, or with a crossreactive protein, such as testes specific protein. Using techniques that are well known in the art, T lymphocyte response to the peptide can be measured in vitro. In a specific embodiment, infra, T cell responses are detected by measuring incorporation of ^3 H-thymidine, which increases with DNA synthesis associated with proliferation. Cell proliferation can also be detected using an MTT assay [Mossman, J. Immunol. Methods, 65:55-63,(1983); Niks and Otto, J. Immunol. Methods, 130:140-151 (1990)]. […] Alternatively, mRNA for lymphokines can be detected, e.g., by amplification [see Brenner, et al., Biotechniques, 7:1096 (1989)] or in situ hybridization [see, e.g., Kasaian and Biron, J. Immunol., 142:1287 (1989)]. […]

[2] = system: r-Ag5 specific spleen cells from mice of different strains; assay: Summary of proliferation indices across mouse strains; settings: four strains BALB/c, ASW/Sn, C3H/He, P/J, C57B1/6 excluded
Description: Summary of proliferation indices of r-Ag5 specific spleen
cells from mice of different strains on stimulation with the
dominant T cell epitope peptides^1
^1 Dominant T cell epitopes are defined as those peptides which showe
stimulation indices of ≥4 in at least one of 5 strains of mice
The present Example defines indices of 4 or greater for proliferation of Ag5- specific cells as containing a T cell epitope of Ag5. With this definition, the data in FIGS. 3-13 for mice of 5 strains with different haplotypes would indicate that the T cell epitopes of Ag5 are distributed throughout the entire molecule. As C57B1/6 mice is a poor responder, its data are excluded in the following comparison.
The data in Table 4 indicate that 14 peptides contain T cell epitopes of Ag5. Three of these peptides are recognized by three of the four strains tested, five of them by two strains and the remaining six by only one strain. […] They are peptides 1, 2, 5, 6, 9, 15, 20 and 18. […] This is particularly apparent for peptides 6, 20, and 18.

[3] = system: r-Ag5 specific spleen cells from C3H/He mice; assay: In vitro proliferation assay, spleen cells of r-Ag5-immunized C3H/He mice; settings: spleen cells from mice immunized 5 times with rAg5; blank 3130 cpm
Experimental: FIG. 13. Stimulation index profile of C3H/He mice spleens after 5 immunizations with r-Ag5. In vitro proliferation assays were performed with peptides at three concentrations: 1×10^-5 M (open bar), 1.25×10^-6 M ("uphill" hatch), and 1.56×10^-7 M ("downhill" hatch). The corresponding concentrations of recombinant Antigen 5 were 1.0×10^-6 M, 1.25×10^-7, and 1.56×10^-8 M. The blank was 3130 cpm.
as §1

[4] = system: r-Ag5 specific spleen cells from ASW/Sn mice; assay: In vitro proliferation assay, spleen cells of r-Ag5-immunized ASW/Sn mice; settings: spleen cells from mice immunized 5 times with rAg5; blank 5640 cpm
Experimental: FIG. 11. Stimulation index profile of ASW/sn mice spleens after 5 immunizations with r-Ag5. In vitro proliferation assays were performed with peptides at three concentrations: 1×10^-5 M (open bar), 1.25×10^-6 M ("uphill" hatch), and 1.56×10^-7 M ("downhill" hatch). The corresponding concentrations of recombinant Antigen 5 were 1.0×10^-6 M, 1.25×10^-7, and 1.56×10^-8 M. The blank was 5640 cpm.
(§2) The peptides of the invention can be tested in a proliferation assay for T cell responses. Generally, lymphocytes from a sensitized host are obtained. The host can be a mouse that has been immunized with a vespid venom antigen 5, or with a crossreactive protein, such as testes specific protein. Using techniques that are well known in the art, T lymphocyte response to the peptide can be measured in vitro. In a specific embodiment, infra, T cell responses are detected by measuring incorporation of ^3 H-thymidine, which increases with DNA synthesis associated with proliferation. Cell proliferation can also be detected using an MTT assay [Mossman, J. Immunol. Methods, 65:55-63,(1983); Niks and Otto, J. Immunol. Methods, 130:140-151 (1990)]. Alternatively, lymphokine production assays can be practiced according to the present invention. In one embodiment, lymphokine production can be assayed using immunological or co-stimulation assays [see, e.g., Fehlner et al., J. Immunol., 146:799 (1991)] or using the ELISPOT technique [Czerkinsky, et al., J. Immunol. Methods, 110:29 (1988)]. Alternatively, mRNA for lymphokines can be detected, e.g., by amplification [see Brenner, et al., Biotechniques, 7:1096 (1989)] or in situ hybridization [see, e.g., Kasaian and Biron, J. Immunol., 142:1287 (1989)]. Of particular interest are those individuals whose T cells produce lymphokines associated with IgE isotype switch events, e.g., IL-4 and IL-5 [Purkeson and Isakson, J. Exp. Med., 175:973-982 (1992)]. Also of interest are the peptide fragments of the vespid venom antigen 5 that contain epitopes recognized by T cells involved in IgE switch events. […]

[5] = system: Ag5 specific spleen cells from BALB/c mice; assay: In vitro proliferation assay, spleen cells of Ag5-immunized BALB/c mice; settings: for Stimulation Index BALB/c: spleen cells from mice immunized with rAg5, blank 3970 cpm
Experimental: FIG. 4. Stimulation index profile of BALB/c mice spleens after 4 immunizations with natural (n)-Ag5. In vitro proliferation assays were performed with peptides at three concentrations: 1×10^-5 M (open bar), 1.25×10^-6 M ("uphill" hatch), and 1.56×10^-7 M ("downhill" hatch). The corresponding concentrations of recombinant antigen 5 control were 1.0×10^-6 M, 1.25×10^-7, and 1.56×10^-8 M. The blank was 2200 cpm.
FIG. 5. Stimulation index profile of BALB/c mice spleens after 4 immunizations with recombinant (r)-Ag5. In vitro proliferation assays were performed with peptides at three concentrations: 1×10^-5 M (open bar), 1.25×10^-6 M ("uphill" hatch), and 1.56×10^-7 M ("downhill" hatch). The corresponding concentrations of recombinant Antigen 5 were 1.0×10^-6 M, 1.25×10^-7, and 1.56×10^-8 M. The blank was 4700 cpm.
FIG. 6. […] In vitro proliferation assays were performed with peptides at three concentrations: 1×10^-5 M (open bar), 1.25×10^-6 M ("uphill" hatch), and 1.56×10^-7 M ("downhill" hatch). The corresponding concentrations of recombinant Antigen 5 were 1.0×10^-6 M, 1.25×10^-7, and 1.56×10^-8 M. […]
as §2

[6] = system: Tpx-C primed spleen cells from BALB/c mice; assay: In vitro proliferation assay, Tpx-C primed spleen cells; settings: BALB/c mice after 4 immunizations with r-fragment Tpx-C (residue 101-163)
Experimental: FIG. 16. Stimulation index profile of BALB/c mice spleen cells after 4 immunizations with Tpx-C. Stimulation was tested with peptide or protein at three different concentrations: Open bars--1×10^-5 M peptide, 5×10^-6 M Frag C or Tpx-C; "uphill" hatch--1.25×10^-6 M peptide; 6.25×10^-7 M Frag C or Tpx-C; "downhill" hatch--1.56×10^-7 M peptide, 7.8×10^-8 M Frag C, Tpx-C: and stippled--9.75×10^-9 M Frag-C or Tpx-C. The blank was 5110 cpm.
as §2

[7] = system: Tpx-N primed spleen cells from BALB/c mice; assay: In vitro proliferation assay, Tpx-N primed spleen cells; settings: BALB/c mice after 4 immunizations with r-fragment Tpx-N (residue 14-106)
Experimental: FIG. 15. Stimulation index profile of BALB/c mice spleen cells after 4 immunizations with Tpx-N. Stimulation was tested with peptide or protein at three different concentrations: Open bars--1.0×10^-5 M peptide or Frag IN, 2.5×10^-6 M Tp X-N; "uphill" hatch--1.25×10^-6 M peptide or Frag IN. 3.13×10^-7 M, Tpx-N; "downhill" hatch--1.5×10^-7 M peptide and Frag IN, 3.91×10^-8 M Tpx-N; and stippled --1.96×10^-8 M Frag IN, 4.89×10^-9 M Tpx-N. The blank was 7270 cpm.
as §2, with “(1992)].” for “(1992)]. Also of interest are the peptide fragments of the vespid venom antigen 5 that contain epitopes recognized by T cells involved in IgE switch events.”

NNYCKIKCRKGIHTLCKFGT [Peptide 1, white face hornet antigen 5 form 2, residue 1-20]
Stimulation Index C57B1/6 [1]: 2.5 | recognition by more than one mouse strain (stimulation indices of ≥4) [2]: recognized by two or three strains of mice | recognition by more than one mouse strain (stimulation indices of ≥4) ([2]; listed as SEQ ID NO:8): dominant in more than one strain of mouse | Stimulation Index C3H/He [3]: 2.4 | Stimulation Index ASW/Sn [4]: 1.9 | stimulation indices (FIG. 4-6 together) ([5]; BALB/c mice immunized 4 times with n-Ag5 or with r-Ag5): ≥ 4 | Stimulation Index BALB/c [5]: 8.6

GIHTLCKFGTSMKPNCGRNV [Peptide 2, white face hornet antigen 5 form 2, residue 11-30]
Stimulation Index C57B1/6 [1]: 1.9 | recognition by more than one mouse strain (stimulation indices of ≥4) [2]: recognized by two or three strains of mice | recognition by more than one mouse strain (stimulation indices of ≥4) ([2]; listed as SEQ ID NO:9): dominant in more than one strain of mouse | Stimulation Index ASW/Sn [4]: 2.2 | Stimulation Index BALB/c [5]: 2.9

fragment C: recombinant C-terminal fragment of hornet antigen 5, residue 151-204 (NPKKGTMGDNNFSKVGHYTQMVWGKTKEIGCGSVKYIENNWHTHYLVCNYGPAG)
stimulation indices, Tpx-C primed spleen cells (FIG. 16) [6]: 9 | stimulation indices, Tpx-C primed spleen cells (FIG. 16) ([6]; listed as r-fragment C): responded equally well

B1: Tpx-N: recombinant fragment of mouse testis protein Tpx, residue 14-106 (protein)
chain: LLRSPLTEGKDPDFTSLLTNQLQVQREIVNKHNELRRSVNPTGSDILKMEWSIQATTNAQKWANKCILEHSSKDDRKINIRCGENLYMSTDPT
stimulation indices, Tpx-N primed spleen cells (FIG. 15) [7]: greater than 6

B2: Tpx-C: recombinant fragment of mouse testis protein Tpx, residue 101-163 (protein)
chain: MSTDPTLWSTVIQSWYNENEDFVYGVGAKPNSAVGHYTQLVWYSSFKIGCGIAYCPNQDNLKY
stimulation indices, Tpx-C primed spleen cells (FIG. 16) [6]: greater than 15

B3: fragment IN: recombinant N-terminal fragment of hornet antigen 5, residue 1-114 (protein)
chain: PIINLSFGEANNYCKIKCSRGIHTLCKFGTSMKPNCGSKLVKVHGVSNDEKNEIVNRHNQFRQKVAKGLETRGNPGPQPPAKNMNVLVWNDELAKIAQTWANQCSFGHDQCRNT
stimulation indices, Tpx-N primed spleen cells (FIG. 15) [7]: greater than 6 | stimulation indices, Tpx-N primed spleen cells (FIG. 15) ([7]; listed as r-fragment IN): responded equally well
